These results are taken from article PMC7217877, “N-AS-triggered SPMs are direct regulators of microglia in a model of Alzheimer’s disease” (Nature Communications, 2020).

One data set concerns APP/PS1 mice. Put plainly: Caspase-3+ cells, apoptosis (Supplementary Fig 7o). The format is in vivo, mouse. How it is done:
Thioflavin S (Sigma-Aldrich) staining was carried out according to previously described procedures. We used 6E10 (mouse, 1:100, Signet, SIG39300), anti-20G10 (mouse, 1:1000, provided by D. R. Howlett, GlaxoSmithKline, Harlow, Essex, UK) for Aβ42, anti-G30 (rabbit, 1:1000, provided by D. R. Howlett) for Aβ40, SMA (mouse, 1:400, Sigma-Aldrich, A2547), AT8 (mouse, 1:500, Thermo Fisher Scientific, MN1020), Caspase-3 (mouse, 1:200, Novus Biologicals, NB100-56708), ac-S565 (rabbit, 1:100), COX2 (mouse, 1:250, Thermo Fisher Scientific, 35-8200), Iba1 (rabbit, 1:500, Wako, 019-19941 and goat, Abcam, ab5076), NeuN (mouse, 1:500, Millipore, MAB177), GFAP (rabbit, 1:500, Dako, N1506 and chicken, 1:500, Abcam, ab4674), and Lamp1 (mouse, 1:200, Abcam, ab24170). The sections were analyzed with a laser-scanning confocal microscope (FV3000; Olympus) or with a BX51 microscope (Olympus). MetaMorph software (Molecular Devices) was used to quantification. Three-dimensional reconstruction of microglia was recorded and analyzed using IMARIS software (Bitplane)[11]. For the analysis of age-dependent microglial COX2^+ CX3CR1^+ cells in WT and APP/PS1 mice, COX2 (rabbit, 1:100, Abcam, ab15191) and CX3CR1 (mouse, 1:100, BioLegend, 149008) antibody were used and the images were acquired on Alexa 488 and APC Channel with performed using Operetta CLS and Analysis Software 4.5 (Perkin-Elmer). […]

The target in data set [1] is T1, COX2 of WT and APP/PS1 mice (Mus musculus, UniProt Q05769).
T1 construct: from tissue; host or cells: microglia and neurons isolated from brain of 9-months-old WT and APP/PS1 mice
T1 sequence (Q05769 18-604): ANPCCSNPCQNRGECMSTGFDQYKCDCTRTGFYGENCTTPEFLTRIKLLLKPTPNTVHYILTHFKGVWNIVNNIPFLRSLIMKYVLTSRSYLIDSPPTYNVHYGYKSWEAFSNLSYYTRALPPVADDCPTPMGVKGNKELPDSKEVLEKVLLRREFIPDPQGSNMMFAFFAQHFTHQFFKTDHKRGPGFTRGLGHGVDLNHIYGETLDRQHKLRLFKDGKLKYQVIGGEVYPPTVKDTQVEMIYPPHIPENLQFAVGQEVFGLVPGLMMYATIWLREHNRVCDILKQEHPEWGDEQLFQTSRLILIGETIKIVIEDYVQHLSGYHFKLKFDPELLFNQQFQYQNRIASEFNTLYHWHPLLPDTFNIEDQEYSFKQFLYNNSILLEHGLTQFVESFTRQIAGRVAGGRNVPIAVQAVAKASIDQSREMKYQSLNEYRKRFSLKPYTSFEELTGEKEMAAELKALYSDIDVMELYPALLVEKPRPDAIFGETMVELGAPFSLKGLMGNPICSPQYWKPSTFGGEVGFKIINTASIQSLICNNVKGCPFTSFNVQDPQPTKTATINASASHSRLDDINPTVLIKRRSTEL
Nature of the data set: in vivo COX2 acetylation in microglia and neuron after oral [14C] N-AS (Supplementary Fig 4d). As to the method:
Acetylation assays were performed according to previously described procedures with minor modifications. […] To confirm the N-AS-mediated COX2 acetylation, 10 μg COX2 (WT or mutants) was used incubated with [^14C] N-AS (2 μCi, ARC UK Ltd, ARC-1024) at 37 °C for 2 h. [^14C] aspirin (2 μCi, ARC UK Ltd, ARC-0473) was conducted as the positive control. The reactions were terminated by placing the reaction tubes in ice for 5 min. To evaluate in vivo neuronal and microglial COX2 acetylation, 10 μCi [^14C] N-AS was orally administrated to 9-months-old WT and APP/PS1 mice. After 1 h, neuron and microglia were isolated and sonicated in culture media. To immunoprecipitate acetylated COX2, the sample was incubated with COX2 antibody (Abcam, ab15191) at 4 °C for 24 h and precipitated by adding 50 μl of protein-A sepharose (GE Healthcare). Acetylated COX2 proteins bound to the beads were analyzed using a Tri-Carb 3110TR liquid scintillation counter (Perkin-Elmer).

Structures are written as SMILES. Where “and” joins values, the source holds several entries; their conditions need not be identical. Equal entries are not always repeated.

Consider `CCCCCCCCCCCCC/C=C/[C@@H](O)[C@H](CO)NC(C)=O` [N-AS, N-((2S,3R,E)-1,3-Dihydroxyoctadec-4-en-2-yl)acetamide], for which the “Caspase-3+ cells” value in the data set with APP/PS1 mice (APP/PS1 + N-AS, sFig 7o) is 0.7653 and 0.8763 and 0.6283 and 0.6646 and 0.8616 and 0.8325. The “apoptosis (Caspase-3+ cells)” value in the data set on APP/PS1 mice (N-AS vs vehicle APP/PS1) is “apoptosis was not changed”. In addition, the “in vivo COX2 acetylation after oral [14C] N-AS (sFig 4d)” value was 223.529 and 255.556 and 247.368 and 238.095 and 191.304 and 233.333 in data set [1] (Microglia, APP/PS1 mice, relative to WT = 100, listed as [14C] N-AS); 100 in data set [1] (Microglia, WT mice (set to 100)); 104 and 95.8333 and 96.1539 and 114.286 and 112.5 in data set [1] (Neuron, APP/PS1 mice, relative to WT = 100, listed as [14C] N-AS); 100 in data set [1] (Neuron, WT mice (set to 100)). The “[14C] radioreactivity of COX2 from microglia” value in data set [1] (oral [14C] N-AS, APP/PS1 vs WT microglia) was “more avidly bound to and acetylated COX2 of APP/PS1 microglia”. Moreover, in data set [1] (oral [14C] N-AS, APP/PS1 vs WT neurons), the “[14C] radioreactivity of COX2 from neurons” value was “no significant differences were observed in neurons”.
